According to patent US10005774B2, “Syk inhibitors” (Gilead Sciences, Inc., priority 2013, dated 2018):

target: Syk (Homo sapiens, UniProt P43405); assay: High Throughput Syk Biochemical Assay (KinEASE TR-FRET); conditions: TABLE D, 20 μM ATP, 1 μM biotinylated peptide, 0.015 nM Syk, 30 min at room temperature, read-out: IC50
Procedure: High Throughput Syk Biochemical Assay
Syk activity was measured using KinEASE (Cisbio), a time-resolved fluorescence resonance energy transfer (TR-FRET) immunoassay. In this assay. Syk-catalyzes the phosporylation of a XL665-labeled peptide substrate. Europium conjugated phospho-tyrosine specific antibody binds the resulting phosphorylated peptide. Formation of phosphorylated peptide is quantified by TR-FRET with Europium as the donor and XL665 the acceptor in a 2-step endpoint assay. In brief, test compounds serially diluted in DMSO were delivered into Corning white, low volume, non-binding 384 well plates using the Echo 550 acoustic liquid dispenser (Labcyte®). Syk enzyme and substrates were dispensed into assay plates using a Multi-Flo (Bio-Tek Instruments). […] Percent inhibition was calculated as follows: % Inhibition=100×(RatioSample−Ratio0% Inhibition)/(Ratio100% Inhibition−Ratio0% Inhibition)

Row | SMILES | IC50
1 | C[C@@H](Oc1nc(-c2cccc(S(C)(=O)=O)c2)cc2ncn(C)c12)[C@H]1CNC(=O)C1 [(R)-4-((R)-1-(3-methyl-6-(3-(methylsulfonyl)phenyl)-3H-imidazo[4,5-c]pyridin-4-yloxy)ethyl)pyrrolidin-2-one] | 42.5 nM
2 | C[C@@H](Oc1nc(-c2cccc(N3CCOCC3)c2)cc2ncn(C)c12)[C@H]1CNC(=O)C1 [(R)-4-((R)-1-(3-methyl-6-(3-morpholinophenyl)-3H-imidazo[4,5-c]pyridin-4-yloxy)ethyl)pyrrolidin-2-one] | 102 nM
3 | C[C@@H](Oc1nc(-c2ccc(N3CCN(S(C)(=O)=O)CC3)cc2)cc2ncn(C)c12)[C@H]1CNC(=O)C1 [(R)-4-((R)-1-(3-methyl-6-(4-(4-(methylsulfonyl)piperazin-1-yl)phenyl)-3H-imidazo[4,5-c]pyridin-4-yloxy)ethyl)pyrrolidin-2-one] | 4.46 nM
4 | C[C@@H](Oc1nc(-c2ccc(N3CCN(C4COC4)CC3)cc2)cc2ncn(C)c12)[C@H]1CNC(=O)C1 [(R)-4-((R)-1-(3-methyl-6-(4-(4-(oxetan-3-yl)piperazin-1-yl)phenyl)-3H-imidazo[4,5-c]pyridin-4-yloxy)ethyl)pyrrolidin-2-one] | 8.21 nM
5 | C[C@@H](Oc1nc(-c2ccc(S(C)(=O)=O)cc2)cc2ncn(C)c12)[C@H]1CNC(=O)C1 [(R)-4-((R)-1-(3-methyl-6-(4-(methylsulfonyl)phenyl)-3H-imidazo[4,5-c]pyridin-4-yloxy)ethyl)pyrrolidin-2-one] | 27.7 nM
6 | C[C@@H](Oc1nc(-c2ccc(N3CCNCC3)cc2)cc2ncn(C)c12)[C@H]1CNC(=O)C1 [(R)-4-((R)-1-(3-methyl-6-(4-(piperazin-1-yl)phenyl)-3H-imidazo[4,5-c]pyridin-4-yloxy)ethyl)pyrrolidin-2-one] | 8.28 nM
7 | C[C@@H](Oc1nc(-c2ccc3c(c2)N(C)CCO3)cc2ncn(C)c12)[C@H]1CNC(=O)C1 [(R)-4-((R)-1-(3-methyl-6-(4-methyl-3,4-dihydro-2H-benzo[b][1,4]oxazin-6-yl)-3H-imidazo[4,5-c]pyridin-4-yloxy)ethyl)pyrrolidin-2-one] | 13.5 nM
8 | C[C@@H](Oc1nc(-c2ccc3c(c2)OCCN3C)cc2ncn(C)c12)[C@H]1CNC(=O)C1 [(R)-4-((R)-1-(3-methyl-6-(4-methyl-3,4-dihydro-2H-benzo[b][1,4]oxazin-7-yl)-3H-imidazo[4,5-c]pyridin-4-yloxy)ethyl)pyrrolidin-2-one] | 8.93 nM
9 | C[C@@H](Oc1nc(-c2ccc(N3CCOCC3)cc2)cc2ncn(C)c12)[C@H]1CNC(=O)C1 [(R)-4-((R)-1-(3-methyl-6-(4-morpholinophenyl)-3H-imidazo[4,5-c]pyridin-4-yloxy)ethyl)pyrrolidin-2-one] | 4.6 nM
10 | Cc1cc(-c2cc3ncn(C)c3c(O[C@H](C)[C@H]3CNC(=O)C3)n2)n[nH]1 [(R)-4-((R)-1-(3-methyl-6-(5-methyl-1H-pyrazol-3-yl)-3H-imidazo[4,5-c]pyridin-4-yloxy)ethyl)pyrrolidin-2-one] | 22.8 nM
11 | C[C@@H](Oc1nc(-c2cnn3ccccc23)cc2ncn(C)c12)[C@H]1CNC(=O)C1 [(R)-4-((R)-1-(3-methyl-6-(pyrazolo[1,5-a]pyridin-3-yl)-3H-imidazo[4,5-c]pyridin-4-yloxy)ethyl)pyrrolidin-2-one] | 12.7 nM
12 | C[C@@H](Oc1nc(-c2ccccc2)cc2ncn(C)c12)[C@H]1CNC(=O)C1 [(R)-4-((R)-1-(3-methyl-6-phenyl-3H-imidazo[4,5-c]pyridin-4-yloxy)ethyl)pyrrolidin-2-one] | 33.8 nM
13 | C[C@@H](Oc1cc(-c2cc3c(cnn3C)s2)cc2ncsc12)[C@H]1CNC(=O)C1 [(R)-4-((R)-1-(5-(1-methyl-1H-thieno[3,2-c]pyrazol-5-yl)benzo[d]thiazol-7-yloxy)ethyl)pyrrolidin-2-one] | 7.68 nM
14 | Cc1c(-c2cc3ncn(C)c3c(O[C@H](C)[C@H]3CNC(=O)C3)n2)cnn1C [(R)-4-((R)-1-(6-(1,5-dimethyl-1H-pyrazol-4-yl)-3-methyl-3H-imidazo[4,5-c]pyridin-4-yloxy)ethyl)pyrrolidin-2-one] | 41.7 nM
15 | C[C@@H](Oc1nc(-c2cnn(CC(F)F)c2)cc2ncn(C(F)F)c12)[C@H]1CNC(=O)C1 [(R)-4-((R)-1-(6-(1-(2,2-difluoroethyl)-1H-pyrazol-4-yl)-3-(difluoromethyl)-3H-imidazo[4,5-c]pyridin-4-yloxy)ethyl)pyrrolidin-2-one] | 3.31 nM
16 | C[C@@H](Oc1nc(-c2cnn(CC(F)F)c2)cc2ncn(C)c12)[C@H]1CNC(=O)C1 [(R)-4-((R)-1-(6-(1-(2,2-difluoroethyl)-1H-pyrazol-4-yl)-3-methyl-3H-imidazo[4,5-c]pyridin-4-yloxy)ethyl)pyrrolidin-2-one] | 17.7 nM
17 | C[C@@H](Oc1nc(-c2cnn(CCF)c2)cc2ncn(C)c12)[C@H]1CNC(=O)C1 [(R)-4-((R)-1-(6-(1-(2-fluoroethyl)-1H-pyrazol-4-yl)-3-methyl-3H-imidazo[4,5-c]pyridin-4-yloxy)ethyl)pyrrolidin-2-one] | 13.2 nM
18 | C[C@@H](Oc1nc(-c2cnn(C(F)F)c2)cc2ncn(C)c12)[C@H]1CNC(=O)C1 [(R)-4-((R)-1-(6-(1-(difluoromethyl)-1H-pyrazol-4-yl)-3-methyl-3H-imidazo[4,5-c]pyridin-4-yloxy)ethyl)pyrrolidin-2-one] | 32.8 nM
19 | C[C@@H](Oc1nc(-c2cnn(C3CCC3)c2)cc2ncn(C)c12)[C@H]1CNC(=O)C1 [(R)-4-((R)-1-(6-(1-cyclobutyl-1H-pyrazol-4-yl)-3-methyl-3H-imidazo[4,5-c]pyridin-4-yloxy)ethyl)pyrrolidin-2-one] | 7.62 nM
20 | C[C@@H](Oc1nc(-c2cnn(C3CC3)c2)cc2ncn(C)c12)[C@H]1CNC(=O)C1 [(R)-4-((R)-1-(6-(1-cyclopropyl-1H-pyrazol-4-yl)-3-methyl-3H-imidazo[4,5-c]pyridin-4-yloxy)ethyl)pyrrolidin-2-one] | 14 nM
21 | CC(C)Cn1cc(-c2cc3ncn(C)c3c(O[C@H](C)[C@H]3CNC(=O)C3)n2)cn1 [(R)-4-((R)-1-(6-(1-isobutyl-1H-pyrazol-4-yl)-3-methyl-3H-imidazo[4,5-c]pyridin-4-yloxy)ethyl)pyrrolidin-2-one] | 15.9 nM
22 | CC(C)n1cc(-c2cc3ncn(C)c3c(O[C@H](C)[C@H]3CNC(=O)C3)n2)cn1 [(R)-4-((R)-1-(6-(1-isopropyl-1H-pyrazol-4-yl)-3-methyl-3H-imidazo[4,5-c]pyridin-4-yloxy)ethyl)pyrrolidin-2-one] | 8.65 nM
23 | CC(C)n1cc(-c2cc(O[C@H](C)[C@H]3CNC(=O)C3)c3ccnn3c2)cn1 [(R)-4-((R)-1-(6-(1-isopropyl-1H-pyrazol-4-yl)pyrazolo[1,5-a]pyridin-4-yloxy)ethyl)pyrrolidin-2-one] | 4.15 nM
24 | C[C@@H](Oc1nc(-c2cnn(C(C)(C)C)c2)cc2ncn(C(F)F)c12)[C@H]1CNC(=O)C1 [(R)-4-((R)-1-(6-(1-tert-butyl-1H-pyrazol-4-yl)-3-(difluoromethyl)-3H-imidazo[4,5-c]pyridin-4-yloxy)ethyl)pyrrolidin-2-one] | 1.22 nM
25 | Cn1cnc2cc(-c3cnn(C(C)(C)C)c3)nc(O[C@H](CC(F)F)[C@H]3CNC(=O)C3)c21 [(R)-4-((R)-1-(6-(1-tert-butyl-1H-pyrazol-4-yl)-3-methyl-3H-imidazo[4,5-c]pyridin-4-yloxy)-3,3-difluoropropyl)pyrrolidin-2-one] | 94.8 nM
